From PMC3176802, “Structural Basis for Distinct Binding Properties of the Human Galectins to Thomsen-Friedenreich Antigen” (PLoS ONE, 2011)
Entries after “also recorded” stand apart in the source; their conditions may differ.

Assays:
Format in all cases: binding
[1] = molecular target: T1, human galectin-3 carbohydrate recognition domain (Gal-3 CRD) (Homo sapiens, UniProt P17931); assay: ITC assay, ligand titrating native Gal-3 CRD; conditions: 298 K
T1 construct: The molecule used in this study is a truncated CRD domain of Gal-3; made in house; host or cells: Escherichia coli BL21 (DE3)
T1 sequence (P17931 118-248 limits assumed): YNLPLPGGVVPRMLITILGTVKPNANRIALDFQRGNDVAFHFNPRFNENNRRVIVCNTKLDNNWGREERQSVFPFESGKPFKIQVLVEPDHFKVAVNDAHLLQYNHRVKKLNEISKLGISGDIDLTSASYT
Procedure: (§1) The delayed time between injections is 180 s. For every ligands, at least three titrations were done. The dissociation constants (Kd) were calculated using the Origin Program and the experimental data were fitted to a one-set-of-sites model.

human galectin-1 (Gal-1) [2] = molecular target: T2, human galectin-1 (Gal-1) (Homo sapiens, UniProt P09382); assay: ITC assay, ligand titrating native Gal-1; conditions: Gal-1, 298 K
T2 construct: made in house; host or cells: Escherichia coli BL21 (DE3)
T2 sequence (P09382 whole entry): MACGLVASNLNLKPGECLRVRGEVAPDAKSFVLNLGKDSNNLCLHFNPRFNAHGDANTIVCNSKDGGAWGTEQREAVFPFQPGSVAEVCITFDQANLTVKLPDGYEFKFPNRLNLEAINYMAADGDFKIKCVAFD
Procedure: as §1

[3] = molecular target: T3, Gal-1-g3-L4 (Gal-1-51ENNR54) mutant (Homo sapiens, UniProt P09382, A56R/D55N/DEL52-52/G54N/H53E); assay: ITC assay, ligand titrating mutant Gal-1-g3-L4; conditions: mutant Gal-1-g3-L4, 298 K; for N, stochiometry (ITC): stochiometry fixed with a value of 1
T3 construct: made in house; host or cells: Escherichia coli BL21 (DE3)
T3 sequence (P09382 with tags, fused parts or gaps DEL52-52/H53E/G54N/D55N/A56R): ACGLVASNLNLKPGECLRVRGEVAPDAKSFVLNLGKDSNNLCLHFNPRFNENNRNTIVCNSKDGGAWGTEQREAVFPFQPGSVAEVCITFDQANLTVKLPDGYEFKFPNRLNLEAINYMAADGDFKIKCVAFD
Procedure: (§2) The mutants, Gal-1-g3-L4 and Gal-3-g1-L4, were designed by exchanging two loops, g1-L4 and g3-L4. These mutants were constructed using Quick Change Site Directed Mutagenesis method, and then the proteins were expressed and purified as above procedures.
as §1

[4] = molecular target: T4, Gal-3-g1-L4 (Gal-3 CRD-165AHGDA169) mutant (Homo sapiens, UniProt P17931, E165H/INS164A/N166G/N167D/R168A); assay: ITC assay, ligand titrating mutant Gal-3-g1-L4; conditions: for N, stochiometry (ITC): stochiometry fixed with a value of 1
T4 construct: The molecule used in this study is a truncated CRD domain of Gal-3; made in house; host or cells: Escherichia coli BL21 (DE3)
T4 sequence (P17931 with tags, fused parts or gaps INS164A/E165H/N166G/N167D/R168A): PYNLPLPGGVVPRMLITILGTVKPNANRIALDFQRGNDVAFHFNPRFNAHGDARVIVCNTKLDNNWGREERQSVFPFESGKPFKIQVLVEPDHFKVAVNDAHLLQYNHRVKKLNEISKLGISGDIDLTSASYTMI
Procedure: as §2, §1

Gal-1-g3-L4 mutant = molecular target: T5, Gal-1-g3-L4 mutant (Homo sapiens, UniProt P09382, A56R/D55N/DEL52-52/G54N/H53E); assay: SPR assay, Gal-1-g3-L4 over immobilized biotin labeled GM1; conditions: mutant Gal-1-g3-L4, immobilized biotin labeled GM1 pentasaccharide, 298 K
T5 construct: made in house; host or cells: Escherichia coli BL21 (DE3)
T5 sequence (P09382 with tags, fused parts or gaps DEL52-52/H53E/G54N/D55N/A56R): as the sequence (P09382 with tags, fused parts or gaps DEL52-52/H53E/G54N/D55N/A56R) above
Procedure: as §2
(§3) Biotin labeled GM1 pentasaccharide (from CFG) was dissolved into PBS buffer and connected covalently onto a streptavidin (SA) chip as the immobilized phase. […] Galectins in the sample buffer (20 mM PBS, pH7.5, 0.005% Tween 20) were as the flowing phase. Analytes with volume of 30 µl at various concentrations ordered from low to high were programmed to inject with a 30 µl/min flow rate under different sensorgrams. In order to correct for instrumental and concentration effects, a blank flow channel was used as reference. Specific binding analyses were identified by subtraction of the control channel. The kinetic analyses of molecular interactions were calculated according to the steady state affinity model by BIAcore T100 Evaluation software.

[5] = molecular target: T6, human galectin-3 CRD (Gal-3 CRD) (Homo sapiens, UniProt P17931); assay: SPR assay, Gal-3 CRD over immobilized biotin labeled GM1; conditions: immobilized biotin labeled GM1 pentasaccharide, steady state affinity model, 298 K
T6 construct: The molecule used in this study is a truncated CRD domain of Gal-3; made in house; host or cells: Escherichia coli BL21 (DE3)
T6 sequence (P17931 118-248 limits assumed): as the sequence (P17931 118-248 limits assumed) above
Procedure: as §3

Gal-3-g1-L4 mutant = molecular target: T7, Gal-3-g1-L4 mutant (Homo sapiens, UniProt P17931, E165H/INS164A/N166G/N167D/R168A); assay: SPR assay, Gal-3-g1-L4 over immobilized biotin labeled GM1; conditions: mutant Gal-3-g1-L4, immobilized biotin labeled GM1 pentasaccharide, steady state affinity model, 298 K
T7 construct: The molecule used in this study is a truncated CRD domain of Gal-3; made in house; host or cells: Escherichia coli BL21 (DE3)
T7 sequence (P17931 with tags, fused parts or gaps INS164A/E165H/N166G/N167D/R168A): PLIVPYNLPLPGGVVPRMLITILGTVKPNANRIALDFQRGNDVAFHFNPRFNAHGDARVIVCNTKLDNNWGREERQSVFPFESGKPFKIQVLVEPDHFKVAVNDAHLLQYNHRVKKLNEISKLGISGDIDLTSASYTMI
Procedure: as §2, §3

human galectin-1 (Gal-1) [6] = molecular target: T2, human galectin-1 (Gal-1); assay: SPR assay, Gal-1 over immobilized biotin labeled GM1; conditions: Gal-1, immobilized biotin labeled GM1 pentasaccharide, 298 K
Procedure: as §3

## Galβ1-3GalNAcα1-O-Ser/Thr [TF antigen]
[1]; Gal-3 CRD
  -ΔH (ITC): 1.9 kcal/mol
  Kd: 47 µM
  N, stochiometry (ITC): 1.04
  ΔS (ITC): 13.5 cal/mol/deg
Human galectin-1 (Gal-1) [2]
  -ΔH (ITC): 26.3 kcal/mol
  Kd: 4000 µM
  ΔS (ITC): −77.2 cal/mol/deg
Human galectin-1 (Gal-1) [2]; stochiometry fixed with a value of 1
  N, stochiometry (ITC): 1.00

## CC(=O)N[C@H]1[C@@H](Oc2ccc([N+](=O)[O-])cc2)O[C@H](CO)[C@H](O)[C@@H]1O[C@@H]1O[C@H](CO)[C@H](O)[C@H](O)[C@H]1O [TFN, TF p-nitrophenyl]
[3]
  -ΔH (ITC): 1.5 kcal/mol
  Kd: 719 µM
  Kd (ITC): can bind and interact
  ΔS (ITC): 9.4 cal/mol/deg
  N, stochiometry (ITC): 1.00
[1]; Gal-3 CRD
  -ΔH (ITC): 4.6 kcal/mol
  N, stochiometry (ITC): 1.21
  ΔS (ITC): 3.8 cal/mol/deg
[1]; native Gal-3 CRD as reference
  affinity relative to native Gal-3 (ITC): 100%
Human galectin-1 (Gal-1) [2]
  Kd (ITC): can not recognize; also recorded: does not bind; also recorded: No affinity
[4]; mutant Gal-3-g1-L4, 298 K
  -ΔH (ITC): 3.9 kcal/mol
  Kd: 543 µM
  Kd (ITC): very lower affinity
  ΔS (ITC): 1.9 cal/mol/deg
  N, stochiometry (ITC): 1.00
[4]; mutant Gal-3-g1-L4 compared to native Gal-3, 298 K
  affinity relative to native Gal-3 (ITC): 12%

## CC(=O)N[C@H]1[C@H](O[C@@H]2[C@H](O[C@]3(C(=O)O)C[C@H](O)[C@@H](NC(C)=O)[C@H]([C@H](O)[C@H](O)CO)O3)[C@@H](O)[C@H](O[C@H]3[C@H](O)[C@@H](O)C(O)O[C@@H]3CO)O[C@@H]2CO)O[C@H](CO)[C@H](O)[C@@H]1O[C@@H]1O[C@H](CO)[C@H](O)[C@H](O)[C@H]1O (some centres unmarked) [GM1, Galβ1-3GalNAcβ1-4[NeuAcα2-3]Galβ1-4Glc]
Gal-1-g3-L4 mutant
  Kd (SPR): Low affinity
[5]
  Kd: 62 µM
[3]
  -ΔH (ITC): 10.3 kcal/mol
  Kd: 568 µM
  Kd (ITC): gains the TF-binding ability
  ΔS (ITC): −19.8 cal/mol/deg
  N, stochiometry (ITC): 1.00
[1]; Gal-3 CRD
  -ΔH (ITC): 4.0 kcal/mol
  N, stochiometry (ITC): 1.06
  ΔS (ITC): 6.0 cal/mol/deg
Gal-3-g1-L4 mutant
  Kd: 397 µM
Human galectin-1 (Gal-1) [6]
  Kd (SPR): No affinity
Human galectin-1 (Gal-1) [2]
  Kd (ITC): can not recognize and interact; also recorded: does not bind; also recorded: No affinity
[4]; mutant Gal-3-g1-L4, 298 K
  -ΔH (ITC): 3.2 kcal/mol
  Kd: 415 µM
  ΔS (ITC): 4.7 cal/mol/deg
  N, stochiometry (ITC): 1.00
